Target: T1, Keap1 (Homo sapiens, UniProt Q14145)
T1 construct: BTB plus part of BACK domain, residues 35-235, uncleaved N-terminal His-tag, E. coli BL21(DE3); AlphaScreen displacement of Cul3 (Cul3/Rbx1)
Assay: X-ray co-crystal structure ([…] Å) of the covalent complex; AlphaScreen inhibition of Cul3 binding with purified Keap1 […]

T1 sequence (P62877 whole entry, the tested form may be a part): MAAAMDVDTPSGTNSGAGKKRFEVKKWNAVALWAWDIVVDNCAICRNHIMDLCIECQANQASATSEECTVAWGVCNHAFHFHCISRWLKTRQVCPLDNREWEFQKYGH
T1 sequence (Q14145 35-235): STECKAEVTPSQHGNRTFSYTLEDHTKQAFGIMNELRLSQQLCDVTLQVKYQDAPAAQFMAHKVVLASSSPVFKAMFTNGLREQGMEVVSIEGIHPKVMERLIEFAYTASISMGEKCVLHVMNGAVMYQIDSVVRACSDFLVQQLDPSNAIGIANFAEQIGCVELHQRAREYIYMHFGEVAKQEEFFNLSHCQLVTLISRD
T1 sequence (Q13618 2-768, further chain): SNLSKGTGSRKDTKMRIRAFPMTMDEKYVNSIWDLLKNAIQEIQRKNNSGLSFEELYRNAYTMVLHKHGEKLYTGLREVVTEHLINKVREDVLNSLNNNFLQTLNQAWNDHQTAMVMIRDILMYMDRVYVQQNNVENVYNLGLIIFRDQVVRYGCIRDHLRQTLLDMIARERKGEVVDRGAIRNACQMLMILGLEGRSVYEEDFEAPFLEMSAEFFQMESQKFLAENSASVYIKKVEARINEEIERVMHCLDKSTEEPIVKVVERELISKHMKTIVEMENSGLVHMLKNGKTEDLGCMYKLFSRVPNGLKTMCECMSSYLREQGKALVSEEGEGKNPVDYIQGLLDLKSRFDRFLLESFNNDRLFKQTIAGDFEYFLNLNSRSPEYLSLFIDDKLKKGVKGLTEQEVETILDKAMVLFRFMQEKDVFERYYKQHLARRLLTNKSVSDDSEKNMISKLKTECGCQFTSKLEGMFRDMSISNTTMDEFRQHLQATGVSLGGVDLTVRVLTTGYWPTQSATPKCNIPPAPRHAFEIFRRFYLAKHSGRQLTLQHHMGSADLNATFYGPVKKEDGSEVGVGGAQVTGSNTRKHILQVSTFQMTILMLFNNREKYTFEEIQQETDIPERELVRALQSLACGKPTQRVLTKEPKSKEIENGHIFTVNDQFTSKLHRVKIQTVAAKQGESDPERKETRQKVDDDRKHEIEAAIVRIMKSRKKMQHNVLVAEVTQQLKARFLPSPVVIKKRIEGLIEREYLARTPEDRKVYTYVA

In the case of `CC1(C)CC[C@]2(C(=O)O)CC[C@]3(C)[C@H](C(=O)C=C4[C@@]5(C)C=C(C#N)C(=O)C(C)(C)[C@@H]5CC[C@]43C)[C@@H]2C1` [CDDO, 2-cyano-3,12-dioxooleana-1,9-dien-28-oic-acid], the IC50 is reported as less than 0.1 µM.

Reference: article PMC4045772, “Structure of the BTB Domain of Keap1 and Its Interaction with the Triterpenoid Antagonist CDDO” (PLoS ONE, 2014)
